# Experiment: in vitro
# Conditions: human, hela cells, % viability
row,Structure (SMILES),"viability at 28.5 h, 10 µM"
1,O=C(c1ccccc1Br)N1CCCCC1 [CBK028504],87.6%
2,Cn1nccc1C(=O)NC(Cc1ccsc1)c1cccnc1 (stereo not drawn) [CBK285394],98.6%
3,O=C(O)Cc1nnnn1-c1ccccc1 [CBK262984],102%
4,N#Cc1cnc2ccccc2c1N1CCC(C(=O)O)CC1 [CBK288050],90%
5,COc1ccc([C@@]23CC[C@H](NC(=O)CS(=O)(=O)c4ccccc4)C[C@@H]2N(C)CC3)cc1OC [CBK036445],105%
6,CC(Oc1ccccc1)c1nnc(SCC(=O)Nc2ccc(Br)cc2F)n1C (stereo not drawn) [CBK266364],101%
7,CCc1ccc(-c2ccc(-c3cc(C(=O)O)c4cc(Br)ccc4n3)o2)cc1 [CBK300543],90.6%
8,Cc1nnc(CN(CC2CCCO2)C2CCC(C)CC2)o1 (stereo not drawn) [CBK304824],94.7%
9,CC(=O)N1CCC(C(=O)NC(=O)Nc2cccc(C)c2)CC1 [CBK034854],94.3%
10,COc1ccccc1OCC(=O)Nc1cnc(-c2cccc(C)c2)c(-c2cccnc2)n1 [CBK037112],84.1%
11,CC(=O)Nc1cccc(NC(=S)Nc2ccc(S(N)(=O)=O)cc2)c1 [CBK267091],98.4%
12,Nc1nnc(SCc2ccc(Br)cc2)s1 [CBK026356],109%
13,Cc1nn(C)cc1S(=O)(=O)Nc1cccc(-c2ccc(F)cc2)c1 [CBK282788],103%
14,COc1ccc(-c2noc([C@@H]3C[C@@H](O)CN3Cc3cccc(C#N)c3)n2)cc1 [CBK288843],92.4%
15,COc1ccccc1CNCc1ccc(CNC(=O)OC(C)(C)C)cc1 [CBK056702],100%
16,Cc1ncsc1C(=O)N1CCC[C@H](C(=O)c2cccs2)C1 [CBK284260],80.2%
17,O=S(=O)(Nc1cccc(O)c1)c1ccc(OC(F)(F)F)cc1 [CBK043822],108%
18,CCOC(=O)C(Cc1ccccc1)NC(=O)c1cn[nH]c1C (stereo not drawn) [CBK305499],99.7%
19,CC(C)(C)S(=O)(=O)c1ccc(C(=O)O)s1 [CBK260880],91.4%
20,O=C(O)c1ccc(-n2ncc3ccccc3c2=O)cc1 [CBK288229],111%
21,CC(C)CN1C(=S)N(Cc2ccc(-c3ccccn3)cc2)[C@H]2[C@H]3OC(=O)[C@H](C[C@H]3O)[C@H]21 [CBK288938],113%
22,NC(=O)c1cc2c(OCCCN3CCN(C(c4ccccc4)c4ccccc4)CC3)cccc2[nH]1 [CBK016544],96%

row,Structure (SMILES),"viability at 28.5 h, 10 µM"
1,C=CCNc1nccnc1-c1ccc(CO)cc1 [CBK036870],91.4%
2,NC(=O)CN(Cc1ccc(Cl)cc1)S(=O)(=O)c1ccccc1 [CBK264149],99.5%
3,CCN(CC)C(=O)Cc1ccc(NC(=O)NCc2cnn(C)c2)cc1 [CBK304918],111%
4,Cc1ccncc1C(=O)Nc1c(C)noc1C [CBK200393],80.7%
5,Cc1ccc(S(=O)(=O)NC2c3cccc4cccc(c34)C2Sc2nncn2N)cc1 (stereo not drawn) [CBK265873],112%
6,CCc1cc(C(=O)OC)c(NC(=S)Nc2nc3cc(C)c(C)cc3s2)s1 [CBK267116],81%
7,OCC(O)CN1CCCC1 (stereo not drawn) [CBK015457],114%
8,CCN(CC)C(=O)Cn1ncc2c3sc(C)cc3n(CC)c2c1=O [CBK284167],99.3%
9,O=[N+]([O-])c1ccc(S(=O)(=O)Nc2cccc3[nH]ccc23)cc1 [CBK159550],87.1%
10,Cn1c(SCC(=O)N2CCN(c3ccccc3)CC2)nc2cc(Cl)ccc21 [CBK298295],99.7%
11,O=C(O)c1ccc(-n2nnnc2SCc2ccccc2)cc1 [CBK287161],93.6%
12,CCOc1ncccc1CNc1ncnc2c1cnn2CCO [CBK305964],97%
13,COc1ccc(Oc2nccnc2N2CCN(Cc3ccc(Cl)c(Cl)c3)CC2)cc1OC [CBK083038T],91.8%
14,COc1ccc(CCNC(=O)c2cnc3scc(C)n3c2=O)cc1 [CBK287291],103%
15,O=C(CSc1ncccn1)Nc1sc2c(c1C(=O)Nc1ccccc1)CCCC2 [CBK265939],93%
16,O=C(Cc1cc(F)cc(F)c1F)Nc1cccc2[nH]ccc12 [CBK159650],89%
17,Cc1nc2ccccc2n1CC(=O)N(CCC#N)Cc1ccco1 [CBK306323],86.1%
18,Cc1ccc(C(=O)N2CCN(Cc3ccccc3)CC2)cn1 [CBK200170],93.6%
19,Cc1sc2ncn(CC(=O)NCc3nnc4n3CCC4)c(=O)c2c1C [CBK305654],93.8%
20,COCCNc1nccnc1-c1cccs1 [CBK036739],100%
21,N/C(=N/O)c1ccc(-n2cncn2)nc1 [CBK020936],104%
22,CC12CCC(=O)N1CCCN2Cc1cnn(-c2ccc(F)cc2)c1 (stereo not drawn) [CBK281819],94.2%

row,Structure (SMILES),"viability at 28.5 h, 10 µM"
1,Cc1c(C)n(CC(O)CN2C(=O)c3ccccc3S2(=O)=O)c2ccccc12 (stereo not drawn) [CBK263960],88.2%
2,O=C(CSCc1c(F)cccc1Cl)NCc1ccccc1Cl [CBK269155],91.6%
3,COC(=O)c1c(NC(=O)C2CC=CCC2C(=O)O)sc2c1CCC(C)C2 (stereo not drawn) [CBK262655],101%
4,O=C(CN1CCCCC1)NN(Cc1ccccc1)c1ccccc1 [CBK261521G],103%
5,COC(=O)CNC(=O)c1ccc(S(=O)(=O)N2CCOCC2)cc1 [CBK264873],109%
6,O=C(c1ccc(F)cc1)N1C[C@H](c2ccsc2)[C@H]2CN(Cc3cccs3)CC[C@H]21 [CBK285636],114%
7,O=C(/C=C/c1cn(C2CC(O)C(CO)O2)c(=O)[nH]c1=O)NCCCCCCNC(=O)C(F)(F)F (stereo not drawn) [CBK201310],94.3%
8,N#CCCSCc1ccc(C(=O)O)o1 [CBK265858],115%
9,CC(=O)Nc1nc(C)c(S(=O)(=O)Nc2nc(C(C)C)ns2)s1 [CBK051227],90.9%
10,CCCCCSc1c(C#N)nc(N2CCOCC2)c2c1CC(C)(C)OC2 [CBK021748],92.1%
11,O=C1CCC[C@]2(CN(Cc3ccccc3)C[C@H]2c2cccnc2)N1 [CBK283349],96.1%
12,c1ccc(Cn2cc(-c3nccnc3OCc3ccccn3)cn2)cc1 [CBK107088],98.9%
13,CCOc1cc(CNC2C3CC4CC(C3)CC2C4)cc(Cl)c1OCC(N)=O (stereo not drawn) [CBK265734C],103%
14,C=CCOc1c(Br)cc(CNc2ccc(C(=O)O)cc2)cc1OC [CBK267202],111%
15,CCOC(=O)c1nc(C2CCN(c3cccc(F)c3C#N)CC2)n[nH]1 [CBK304711],119%
16,CCCC(=O)Nc1nnc(-c2ccc(C)cc2C)o1 [CBK287700],107%
17,C=CCn1c(S)nnc1COc1cccc2ccccc12 [CBK267292],89.4%
18,O=C(Nc1cccc(-c2csnn2)c1)c1ccco1 [CBK270255],85.2%
19,S=c1[nH]cnc2sc3c(c12)CCCC3 [CBK027787],73.7%
20,CCn1c(CN2CC(C)CC(C)C2)nc2c1c(=O)n(C)c(=O)n2C (stereo not drawn) [CBK306030],84.4%
21,CC(O)c1nc2ccccc2n1C (stereo not drawn) [CBK115560],94.9%
22,Cc1cc(N2CCN(C(=O)CCc3ccsc3)CC2)nc(C(C)C)n1 [CBK305710],113%

row,Structure (SMILES),"viability at 28.5 h, 10 µM"
1,COc1cccc(CN2CCCC3(C2)c2[nH]c4ccccc4c2CCN3C(C)=O)c1 (stereo not drawn) [CBK039634],86.4%
2,Cc1nc2ccc(C(=O)N(C)CCN3CCCCC3)cc2s1 [CBK281919],93.4%
3,C#CC1(NC(=O)NS(=O)(=O)c2ccc(C)cc2)CCCCC1 [CBK028805],96.9%
4,CC1=C(C)C(=NNC(N)=S)C(C)=C(C)C1=NNC(N)=S [CBK261262],91.9%
5,Clc1ccc(OCc2n[nH]c(-c3ccccn3)n2)cc1 [CBK269472],90.2%
6,CCCN1CCN(c2ncc(CNS(=O)(=O)c3ccc(Cl)cc3)cn2)CC1 [CBK010261],101%
7,Cc1ccc(-c2nc(Nc3ccc(Br)cc3)sc2CC(=O)O)cc1 [CBK264251],101%
8,COc1ccc(S(=O)(=O)NCCN2CCOCC2)cc1Br [CBK269838],91.4%
9,O=C(NCc1c(Cl)cccc1Cl)N1CCN(c2ccccc2)CC1 [CBK155194],98.5%
10,Cc1cccc2c1[nH]c1nc(N/N=C\c3ccc(-c4cccc([N+](=O)[O-])c4)o3)nnc12 [CBK262373],96%
11,CC(C)C(NC(=O)C(C)(C)Oc1ccc(Cl)cc1)C(=O)O (stereo not drawn) [CBK266138],94.5%
12,Cc1ccc(S(=O)(=O)N[C@H]2CO[C@H]3[C@@H]2OC[C@@H]3n2nnnc2Oc2ccccc2)cc1 [CBK289485],82.4%
13,Cn1c(C(=O)NCCc2ccc(S(=O)(=O)NC(=O)NC3CCCCC3)cc2)cc2ccccc21 [CBK011876],128%
14,COc1ccc(-c2ccc(-c3cc(C(=O)O)c4ccccc4n3)o2)cc1 [CBK300542],75.5%
15,COc1ccc([C@@]23CC[C@@H](NS(=O)(=O)c4ccc5ccccc5c4)C[C@@H]2N(C)CC3)cc1OC [CBK056848T],96.8%
16,Cn1c(=O)c2c(ncn2CC(=O)Nc2ccc(Cl)cc2Cl)n(C)c1=O [CBK133227],86%
17,COc1ccccc1-c1nccnc1OCCn1cnc2c1c(=O)n(C)c(=O)n2C [CBK106816],109%
18,O=C(Cn1cnc2c(F)cc(Br)cc2c1=O)N1CCOC2CCCCC21 (stereo not drawn) [CBK305229],89.2%
19,CCN1C(=O)c2ccccc2C(=O)[C@@]2(C)CN(C(C)=O)C[C@@H]12 [CBK281686],89.7%
20,O=C(CSc1nc2ccccc2n1Cc1ccccc1)N/N=C/c1ccco1 [CBK263174],89.6%
21,Cc1ccn2cc(CNC(=O)CN3CCOc4ccccc4C3)nc2c1 [CBK307518],84.6%
22,COc1ccc(C(=O)c2c(N)c(C(=O)Nc3ccccc3)c3ccccn23)cc1 [CBK300509],92.6%

# Same assay, conditions: human, hela cells, % viability, bulk resorufin, single well
row,Structure (SMILES),"viability at 28.5 h, 10 µM"
1,CCOC(=O)C1(c2ccccc2)CCN(C(=O)Cc2ccsc2)CC1 [CBK132172],93%
2,CCOC(=O)C1(c2ccccc2)CCN(C(=O)CC(C)(C)N)CC1 [CBK137117],96.6%

# Reference: publication PMC12040169 (PLOS Biology, 2025)
